# From PMC7496931, “Activation of Sirtuin 2 Inhibitors Employing Photoswitchable Geometry and Aqueous Solubility” (Chemmedchem, 2020)
# Where “and” joins values, the source holds several entries; their conditions need not be identical. Equal values may be shown once. Read-outs that look alike come from different tables or passages of the source.
# Columns and labels:
# Format in all cases: biochemical
# Sirt1 = molecular target: T1, Sirt1 (Homo sapiens, UniProt Q96EB6); test: Fluorescence-based ZMAL deacetylase activity assay, Sirt1
# T1 construct: Expression and purification of Sirt1_133−747, Sirt2_56−356, and Sirt3_118−395 was carried out as described previously; made in house
# T1 sequence (Q96EB6 133-747): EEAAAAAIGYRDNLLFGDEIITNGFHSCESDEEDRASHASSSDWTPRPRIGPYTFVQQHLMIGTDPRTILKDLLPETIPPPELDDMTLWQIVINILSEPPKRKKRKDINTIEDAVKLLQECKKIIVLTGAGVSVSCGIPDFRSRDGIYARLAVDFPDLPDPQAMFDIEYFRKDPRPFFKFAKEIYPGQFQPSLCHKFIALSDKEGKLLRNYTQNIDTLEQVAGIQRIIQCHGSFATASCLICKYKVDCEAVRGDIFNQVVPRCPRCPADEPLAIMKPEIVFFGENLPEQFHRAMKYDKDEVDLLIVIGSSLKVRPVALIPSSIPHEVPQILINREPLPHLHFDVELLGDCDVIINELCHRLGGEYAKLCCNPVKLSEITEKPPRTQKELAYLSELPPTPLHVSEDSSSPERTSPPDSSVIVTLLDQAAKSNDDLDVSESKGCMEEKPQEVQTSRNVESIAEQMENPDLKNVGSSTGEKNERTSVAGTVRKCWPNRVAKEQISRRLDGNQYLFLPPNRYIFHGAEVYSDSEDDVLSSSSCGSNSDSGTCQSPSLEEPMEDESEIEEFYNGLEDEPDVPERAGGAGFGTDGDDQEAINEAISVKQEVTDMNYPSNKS
# Description: (§1) The effect of the compounds on deacetylase activity of three human sirtuin isotypes (Sirt1–3) was investigated by a homogeneous fluorescence‐based assay, using (Z)‐Lys(acetyl)‐AMC (ZMAL) as substrate. In order to determine the impact of photoisomerization, the respective compounds were irradiated (365 nm, 5 min) in DMSO prior to incubation in the enzyme assay mixture. The results of the irradiated probes were finally compared to non‐irradiated measurements.
# (§2) Cloning, expression and purification of recombinant proteins: Expression and purification of Sirt1_133−747, Sirt2_56−356, and Sirt3_118−395 was carried out as described previously.27 Identity and purity were verified by SDS‐PAGE.
# (§3) Fluorescence‐based activity assay: The inhibitory effect of compounds on Sirt1–3 was detected via a previously reported fluorescence‐based assay.29 The synthetic substrate (Z)‐Lys(acetyl)‐AMC (ZMAL) is deacetylated by sirtuins, followed by tryptic digestion and thereby release of 7‐aminomethylcoumarin, leading to a fluorescent readout. Inhibition was determined by comparing percentage substrate conversion to a DMSO control after subtraction of the blank fluorescence signal. All compounds were tested at 100 or 50 μM and 10 μM respectively. […] IC50 values were calculated with OriginPro 9.0 G using a non‐linear regression to fit the dose response curve (Figure S6). An enzyme‐free blank control and a 100 % conversion control using AMC instead of ZMAL were measured as well. Inhibition measurements were performed in biological duplicates for all compounds. […]
# (§4) Fluorescence-Based Activity Assay (ZMAL-Assay)
# (§5) The influence of the synthesized compounds on the deacetylase activity of the class I sirtuins Sirt1–3 was determined in a homogenous fluorescence-based enzyme assay, using the artificial substrate Z-(Ac)Lys-AMC (ZMAL). ZMAL is processed by sirtuins yielding Z-Lys-AMC.
# (§6) The latter is subsequently cleaved by tryptic digestion, releasing 7-amino-4-methylcoumarin (AMC), excitation of which leads to a fluorescent read out (λex=390 nm; λem=460 nm). Instead, […]
# (§7) contribute to the fluorescence signal. Therefore, the fluorescence intensity is proportional to the activity of the respective sirtuin.
# (§8) After subtraction of the blank fluorescence signal (without enzyme) from the signal of the respective probe, the residual signal intensity is related to a 100 % conversion control (AMC), […]
# (§9) yielding the percentage substrate conversion. Comparison of the determined substrate conversion with a no-inhibition DMSO control yields the percentage inhibition at the respective […]
# (§10) For determination of IC50, inhibitory activity of the respective compound was determined at 8 to 10 distinct concentrations. The measured values were analysed by a non-linear fit to the dose-response curve using a four parameter logistic model (Figure S6):
# (§11) Figure S6: Non-linear regression of the dose-response curves of compounds 15c and 15f at the thermal equilibrium (∆, black) and after 5 minutes of 365 nm irradiation (red). […]
# A maximal polarization control using just DMSO and a minimal polarization control using 1 µL of the 400 µM solution of 22 instead of inhibitor were performed as well as a blank control containing 1 µL of DMSO in 19 µL assay buffer. The mixture was incubated 10 min at 37 °C […]
# (1 picture or pasted object on this page, not shown here)
# Sirt2 = molecular target: T2, Sirt2 (Homo sapiens, UniProt Q8IXJ6); test: Fluorescence-based ZMAL deacetylase activity assay, Sirt2
# T2 construct: Expression and purification of Sirt1_133−747, Sirt2_56−356, and Sirt3_118−395 was carried out as described previously; made in house
# T2 sequence (Q8IXJ6 56-356): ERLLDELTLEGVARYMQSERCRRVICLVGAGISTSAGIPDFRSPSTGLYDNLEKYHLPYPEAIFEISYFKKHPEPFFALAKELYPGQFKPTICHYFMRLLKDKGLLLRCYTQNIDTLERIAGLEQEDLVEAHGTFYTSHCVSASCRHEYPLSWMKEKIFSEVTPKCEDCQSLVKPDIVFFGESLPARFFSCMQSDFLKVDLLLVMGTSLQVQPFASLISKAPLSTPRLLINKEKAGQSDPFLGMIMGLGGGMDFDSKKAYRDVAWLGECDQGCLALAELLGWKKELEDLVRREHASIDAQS
# Description: as §1, §2, §3, §4, §5, §6, §7, §8, §9, §10, §11
# (§12) A maximal polarization control using just DMSO and a minimal polarization control using 1 µL of the 400 µM solution of 22 instead of inhibitor were performed as well as a blank control containing 1 µL of DMSO in 19 µL assay buffer. The mixture was incubated 10 min at 37 °C
# Sirt3 = molecular target: T3, Sirt3 (Homo sapiens, UniProt Q9NTG7); test: Fluorescence-based ZMAL deacetylase activity assay, Sirt3
# T3 construct: Expression and purification of Sirt1_133−747, Sirt2_56−356, and Sirt3_118−395 was carried out as described previously; made in house
# T3 sequence (Q9NTG7 118-395): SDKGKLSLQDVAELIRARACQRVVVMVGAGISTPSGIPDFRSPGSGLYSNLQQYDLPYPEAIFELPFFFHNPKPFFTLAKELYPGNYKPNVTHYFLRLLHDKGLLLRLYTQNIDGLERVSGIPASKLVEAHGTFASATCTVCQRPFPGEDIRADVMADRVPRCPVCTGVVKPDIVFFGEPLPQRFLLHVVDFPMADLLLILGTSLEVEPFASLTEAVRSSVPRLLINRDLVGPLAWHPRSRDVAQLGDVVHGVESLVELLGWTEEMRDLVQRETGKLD
# Description: as §1, §2, §3, §4, §5, §6, §7, §8, §9, §10, §11, §12
# [1] = PSS after 5 min UV irradiation (365 nm), read-out: Sirt1 inhibition PSS [365 nm] (class)
# [2] = thermal equilibrium (Δ), read-out: Sirt1 inhibition Δ (class)
# [3] = PSS after 5 min UV irradiation (365 nm)
# [4] = PSS after 5 min UV irradiation (365 nm), read-out: Sirt1 inhibition PSS [365 nm], percent inhibition
# [5] = PSS after 5 min UV irradiation (365 nm), read-out: Sirt2 inhibition PSS [365 nm], IC50
# [6] = thermal equilibrium (Δ), read-out: Sirt2 inhibition Δ, IC50
# [7] = PSS after 5 min UV irradiation (365 nm), read-out: Sirt3 inhibition PSS [365 nm], percent inhibition
# [8] = thermal equilibrium (Δ), read-out: Sirt3 inhibition Δ, percent inhibition
# [9] = @ 100 μM, PSS after 5 min UV irradiation (365 nm), read-out: Sirt1 inhibition PSS [365 nm], percent inhibition
# [10] = @ 100 μM, thermal equilibrium (Δ), read-out: Sirt1 inhibition Δ, percent inhibition
# [11] = PSS 365 nm versus thermal equilibrium
# [12] = PSS after 5 min UV irradiation (365 nm), read-out: Sirt3 inhibition PSS [365 nm], IC50
# [13] = thermal equilibrium (Δ), read-out: Sirt3 inhibition Δ, IC50
Structure (SMILES),inhibition at 100 µM (Sirt1; [1]) [%],inhibition at 100 µM (Sirt1; [2]) [%],inhibition at 10 µM (Sirt1; [4]) [%],IC50 (Sirt2; [5]) [µM],IC50 (Sirt2; [6]),inhibition at 10 µM (Sirt3; [7]) [%],inhibition at 10 µM (Sirt3; [8]) [%],inhibition at 100 µM (Sirt1; [9]) [%],decrease of Sirt2 inhibition upon 365 nm irradiation (factor) (Sirt2; [11]),also measured
Cc1cc(/N=N/c2cncc(C(N)=O)c2)cc(C)c1NC(=O)C12CC3CC(CC(C3)C1)C2 [9 k],< 30,< 30,–,–,–,–,–,–,–,"inhibition at 100 µM (Sirt2; PSS after 5 min UV irradiation (365 nm), read-out: Sirt2 inhibition PSS [365 nm], percent inhibition): 71%; inhibition at 100 µM (Sirt2; thermal equilibrium (Δ), read-out: Sirt2 inhibition Δ, percent inhibition): 43%; Sirt3 inhibition PSS [365 nm] (class) (Sirt3; [3]): n.i. (n.i.: no inhibition detected (<30 % @ 100 μM)); Sirt3 inhibition Δ (class) (Sirt3; thermal equilibrium (Δ)): n.i. (n.i.: no inhibition detected (<30 % @ 100 μM))"
CC(C)(C)OC(=O)c1ccc(/N=N/c2cncc(C(N)=O)c2)cc1 [15 a],–,< 30,7,6.8 ± 0.4,6 ± 1.1 µM,45,42,–,–,–
CC(C)(C)OC(=O)Cc1ccc(/N=N/c2cncc(C(N)=O)c2)cc1 [15 b],–,–,–,6.9 ± 0.6,3.9 ± 0.2 µM,30,58,44,–,inhibition at 100 µM (Sirt1; [10]): 35%
CC(C)(C)OC(=O)NCc1ccc(/N=N/c2cncc(C(N)=O)c2)cc1 [15 c],–,< 30,6,2.8 ± 0.1,0.9 µM and 0.88 µM,–,–,–,three,decrease of Sirt3 inhibition upon 365 nm irradiation (factor) (Sirt3; [11]): fourfold; IC50 (Sirt3; [12]): 4 ± 0.7 µM; IC50 (Sirt3; [13]): 1.1 ± 0.2 µM
NC(=O)c1cncc(/N=N/c2ccc(Br)cc2)c1 [15 d],–,< 30,–,8.4 ± 0.9,7.5 ± 0.5 µM,–,–,47,–,IC50 (Sirt3; [12]): 13 ± 2.2 µM; IC50 (Sirt3; [13]): 8.2 ± 1.4 µM
CCCCNC(=O)c1ccc(/N=N/c2cncc(C(N)=O)c2)cc1 [15 e],–,< 30,10,–,–,49,54,–,–,"inhibition at 10 µM (Sirt2; PSS after 5 min UV irradiation (365 nm), read-out: Sirt2 inhibition PSS [365 nm], percent inhibition (converted)): 61%; inhibition at 10 µM (Sirt2; thermal equilibrium (Δ), read-out: Sirt2 inhibition Δ, percent inhibition (converted)): 51%"
CCCCCCCCCC(=O)NCc1ccc(/N=N/c2cncc(C(N)=O)c2)cc1 [15 f],< 30,< 30,–,1.6 ± 0.2,37 µM and 36.6 µM,–,–,–,–,increase of Sirt2 inhibition upon 365 nm irradiation (factor) (Sirt2; [11]): 23 fold; Sirt3 inhibition PSS [365 nm] (class) (Sirt3; [3]): n.i. (n.i.: no inhibition detected (<30 % @ 100 μM)); Sirt3 inhibition Δ (class) (Sirt3; thermal equilibrium (Δ)): n.i. (n.i.: no inhibition detected (<30 % @ 100 μM))
NC(=O)c1cncc(/N=N/c2ccc(C#CCCCCO)cc2)c1 [15 g],–,–,–,11.8 ± 1,7.2 ± 0.5 µM,22,64,54,1.6 fold,inhibition at 100 µM (Sirt1; [10]): 60%
CC(C)(O)C#Cc1ccc(/N=N/c2cncc(C(N)=O)c2)cc1 [15 h],< 30,< 30,–,37.5 ± 5.2,15.2 ± 1.8 µM,18,42,–,2.5 fold,–
NC(=O)c1cncc(OCc2cccc(/N=N/c3ccc(OCc4ccccc4)cc3)c2)c1 [20 a],< 30,< 30,–,1.6 ± 0.2,0.7 ± 0.21 µM,24,23,–,twofold,–
